Data from patent publication US12319655B2, “RAF kinase inhibitors and methods of use thereof” (Deciphera Pharmaceuticals, LLC, priority 2021, dated 2025).

Experiments:
WM3629 cells = test: WM3629 Cell Proliferation Assay (1); assay type: cell-based
Procedure: WM3629 Cell Proliferation Assay (1)
WM3629 cells (#WM3629-01-0001) are obtained from Rockland Immunochemicals Inc (Gilbertsville, PA). Briefly, cells were grown in MCDB 153 medium (Sigma, #M7403, St. Louis, MO) supplemented with 20% Leibovitz's L-15 (ThermoFisher #11415-064, Waltham, MA), 2% heat inactivated fetal bovine serum (ThermoFisher, #A3840001, Waltham, MA), 5 μg/mL Insulin (Bovine Pancreas) (Sigma, #10516, St. Louis, MO), 1.68 mM Calcium Chloride (Sigma, #C-34006, St. Louis, MO) and 1% Penicillin/Streptomycin/L-Glutamine (ThermoFisher #10378016, Waltham, MA) at 37° C., 5% CO2, and 95% humidity. Cells are expanded until reaching 70-95% confluency at which point they are subcultured or harvested for assay use. A serial dilution of test compound is dispensed into a 96-well black clear bottom plate in triplicate. Four thousand five hundred cells are added per well in 200 μL complete growth medium in the 96-well plate. Plates are incubated for 67-72 hours at 37° C., 5% CO2, and 95% humidity. At the end of the incubation, 40 μL of a 440 μM solution of resazurin (Sigma, #199303, St. Louis, MO) in PBS is added to each well of the plate and plates are incubated for an additional 6-7 hours at 37° C., 5% CO2, and 95% humidity. Plates are read on a Synergy2 or equivalent reader (Biotek, Winooski VT) using an excitation of 540 nm and an emission of 600 nm. Data is analyzed using Prism software (GraphPad, San Diego, CA) to calculate IC50 values.

Miapaca-2 cells = test: MiaPaca-2 Combination Cell proliferation Assay (1) with cobimetinib; assay type: cell-based; conditions: MiaPaca-2 cell proliferation, read-out: MiaPaca-2 Combo (1) IC50

Row | IC50 (Miapaca-2 cells) | SMILES | IC50 (WM3629 cells)
1 | ≤ 100 nM | COC(=O)Nc1cc(-c2cc(-c3cc(NC(=O)c4ccnc(C(C)(C)F)c4)c(F)cc3C)ccn2)ccn1 [Example 302] | ≤ 100 nM
2 | ≤ 100 nM | CNC(=O)c1cc(-c2nccc(-c3cc(NC(=O)c4ccnc(C(F)(F)F)c4)ccc3C)n2)ccn1 [Example 25] | 
3 | ≤ 100 nM | CC(=O)Nc1cc(-c2cccc(-c3cc(NC(=O)c4ccnc(C(F)(F)F)c4)ccc3C)c2)ncn1 [Example 30] | 
4 | ≤ 100 nM | COC(=O)Nc1cc(-c2cc(-c3cc(NC(=O)c4ccnc(C(C)(C)C#N)c4)cnc3C)ccn2)ccn1 [Example 297] | 
5 | ≤ 100 nM | COC(=O)Nc1cc(-c2cccc(-c3cc(NC(=O)c4ccnc(C(C)(C)C#N)c4)cnc3C)c2)ccn1 [Example 282] | 
6 | ≤ 100 nM | CC(=O)Nc1cc(-c2cc(-c3cc(C(=O)Nc4ccnc(C(F)(F)F)c4)ccc3C)ccn2)ccn1 [Example 26] | 
7 | ≤ 100 nM | CC(=O)Nc1cc(-c2nccc(-c3cc(NC(=O)c4ccnc(C(F)(F)F)c4)ccc3C)n2)ccn1 [Example 24] | 
8 |  | CNC(=O)c1cc(-c2cnnc(-c3cc(NC(=O)c4ccnc(C(C)(C)F)c4)ccc3C)c2)ccn1 [Example 325] | ≤ 100 nM
9 | 100 to 500 nM | Cc1ccc(NC(=O)c2ccnc(C(C)(C)C#N)c2)cc1-c1ccnc(-c2ccnc3c2CC(=O)N3)c1 [Example 23] | 
10 | ≤ 100 nM | COC(=O)Nc1cc(-c2nccc(-c3cc(NC(=O)c4ccnc(C(C)(C)F)c4)c(F)cc3C)n2)ccn1 [Example 304] | ≤ 100 nM
11 | ≤ 100 nM | CC(=O)Nc1cc(-c2cncc(-c3cc(NC(=O)c4ccnc(C(F)(F)F)c4)ccc3C)n2)ccn1 [Example 29] | 
12 |  | Cc1ccc(NC(=O)c2cnn(C(C)(C)C)c2)cc1-c1cc(-c2ccnc(NC(=O)C3CC3)c2)cnn1 [Example 321] | ≤ 100 nM
13 | ≤ 100 nM | COC(=O)Nc1cc(-c2cc(-c3cc(NC(=O)c4ccnc(C(C)(C)C#N)c4)c(F)cc3C)ccn2)ccn1 [Example 308] | ≤ 100 nM
14 | 500 to 1000 nM | CNC(=O)c1cc(-c2cc(-c3cc(NC(=O)c4ccnc(C(F)(F)F)c4)ccc3C)cc(C3CC3)n2)ccn1 [Example 27] | 
15 | ≤ 100 nM | COC(C)(C)c1cc(C(=O)Nc2ccc(C)c(-c3cc(-c4ccnc(NC(=O)C5CC5)c4)cnn3)c2)ccn1 [Example 319] | 
16 | ≤ 100 nM | COC(=O)Nc1cc(-c2nccc(-c3cc(NC(=O)c4ccnc(C(C)(C)C#N)c4)c(F)cc3C)n2)ccn1 [Example 303] | ≤ 100 nM
17 | ≤ 100 nM | CC(=O)Nc1cc(-c2cccc(-c3cc(NC(=O)c4ccnc(C(F)(F)F)c4)ccc3C)c2)ccn1 [Example 28] | 
18 | 1000 to 10000 nM | CNC(=O)c1cc(-c2cc(-c3cc(NC(=O)COCC4CC4)ccc3C)ccn2)ccn1 [Example 358] | 
19 | ≤ 100 nM | Cc1ccc(NC(=O)c2ccnc(C(C)(C)F)c2)cc1-c1cc(-c2ccnc(NC(=O)C3CC3)c2)cnn1 [Example 315] | ≤ 100 nM
20 |  | CNC(=O)c1cc(-c2cnnc(-c3cc(NC(=O)c4ccnc(C(F)F)c4)ccc3C)c2)ccn1 [Example 327] | 1000 to 10000 nM
